From patent US20080262047A1, “Ppar-Gamma Agonists for Improvement of Cognitive Function in Apoe4 Negative Patients” (priority 2005, published 2008)
“Also recorded” adds a separate entry of the source.

Tests used:
[1] = test system: patients with moderate to severe AD; settings: cited from earlier work
dopaminergic cells = settings: acetaldehyde, MPTP; cited from earlier work
AD and MCI = settings: clinical trial; cited from earlier work
[2] = test system: individuals with mild cognitive impairment; settings: at three years; cited from earlier work
[3] = test system: patients diagnosed with mild to moderate AD; assay: CIBIC+ (Clinician's Interview-Based Impression of Change with caregiver information) in Alzheimer's patients; format: in vivo, human
Protocol: (§1) Analysis for the full intent to treat (ITT) population was performed on 511 subjects who were randomly allocated into one of four specific treatment regimes. Genotyping analysis was performed on 63% (323/511) of the ITT population.
(§2) Patient population included Caucasian males and females between 50-85 years of age who had been diagnosed with mild to moderate AD, were not receiving any medications which could adversely prejudice the study (e.g. PPAR-gamma agonists or conventional AD medicaments) or had any other potentially prejudicial ailments (e.g. diabetes or major psychiatric disorders).
(§3) Patients received either placebo or one of three dosage levels of extended release rosiglitazone provided once daily (2 mg, 4 mg and 8 mg tablets as described in Example 1). Patients were examined using the cognitive Alzheimer's Disease Assessment Scale (ADAS-cog; for further information see Rosen W G et al. Am. J. Psychiatry. 1984 141:1356-1364) and the Clinician's Interview-Based Impression of Change with caregiver information (CIBIC+; for further information see Knopman D S et al. Neurology 1994 44: 2315-2321); and secondary assessments were performed using: the Disability Assessment for Dementia (DAD, for further information see Gelinas L et al. Am J Occup Ther 1999 53: 471-81) and the Neuropsychiatric Inventory test (NPI, for further information see Cummings et al (1994) Neurology 44, 2308-2314) at the start of the study (baseline) and during the course of the study (after 8, 16 and 24 weeks of treatment).
(§4) APOE genotype was determined using the TaqMan PCR-based method of McLeod et al 2001 infra.
(§5) All statistics reflect last observed assessment carried forward (LOCF) measurements.
Higher CIBIC+ scores indicate a greater level of decline with scores below 4 denoting clinical improvement and scores above 4 denoting clinical decline.

[4] = test system: patients diagnosed with mild to moderate AD; assay: Disability Assessment for Dementia (DAD) in Alzheimer's patients; format: in vivo, human; settings: week 24
Protocol: as §3
Similar results were identified using the Disability Assessment for Dementia (DAD) test (Gelinas L et al. Am J Occup Ther 1999 53: 471-81). A prospectively defined test for interaction between APOE4 carriage status and DAD scores at week 24 was significant (P=0.006).

[5] = test system: patients diagnosed with mild to moderate AD; assay: ADAS-cog (cognitive Alzheimer's Disease Assessment Scale) in Alzheimer's patients; format: in vivo, human; settings: for Cognitive function (ADAS-cog), in words / ADAS-cog change, in words: 24 weeks; for ADAS-cog change from baseline (FIG. 3), in words: course of the study
Protocol: as §1, §2, §3, §4, §5
It should be noted that in the case of ADAS-cog higher scores indicate reduced cognitive function.

[6] = test system: patients diagnosed with mild to moderate AD; assay: Neuropsychiatric Inventory (NPI) test in Alzheimer's patients; format: in vivo, human; settings: week 24
Protocol: as §3
Similar results were identified using the Neuropsychiatric Inventory (NPI) test (Cummings et al (1994) Neurology 44, 2308-2314). A prospectively defined test for interaction between APOE4 carriage status and NPI scores at week 24 was significant ([…]).

CC12CC3CC(C)(C1)CC(N)(C3)C2 [memantine]
Adverse effects [1]: low incidence of adverse effects
Rate of deterioration [1]: significantly retard the rate of deterioration

CCc1ccc(CCOc2ccc(CC3SC(=O)NC3=O)cc2)nc1 (stereo not drawn) [pioglitazone, 5-[4-[2-(5-ethyl-2-pyridyl)ethoxy]benzyl]thiazolidine-2,4-dione]
Protection of dopaminergic cells from toxic insults (dopaminergic cells): can protect dopaminergic cells

CS(=O)(=O)c1ccc(C2=C(c3ccccc3)C(=O)OC2)cc1 [rofecoxib]
Efficacy in AD and MCI (AD and MCI): failed to show any efficacy

COc1cc2c(cc1OC)C(=O)C(CC1CCN(Cc3ccccc3)CC1)C2 (stereo not drawn) [donepezil]
Rate at which patients developed AD [2]: no separation between groups

CN(CCOc1ccc(CC2SC(=O)NC2=O)cc1)c1ccccn1 (stereo not drawn) [Rosi, 5-[4-[2-(N-methyl-N-(2-pyridyl)amino)ethoxy]benzyl]thiazolidine-2,4-dione]
CIBIC+, in words ([3]; APOE4 heterozygotes, 2 mg, 24 weeks): decline
CIBIC+, in words ([3]; APOE4 heterozygotes, 4 mg, 24 weeks): Less decline
CIBIC+, in words ([3]; APOE4 heterozygotes, 8 mg, 24 weeks): slight improvement
CIBIC+, in words ([3]; APOE4 homozygotes, 24 weeks, compared to placebo): slight improvement
CIBIC+, in words ([3]; APOE4− patients, 24 week period): slight improvement
CIBIC+ difference between treatment groups and placebo, in words ([3]; ITT population, 24 weeks): did not lead to a distinguishable difference
CIBIC+ model adjusted, LSMean (SE) ([3]; Table 13a (updated analysis, additional subjects), PGx ITT population, APOE4 copies 1, Rosi 8 mg (n = 23), after 24 weeks): 3.70 (0.24)
DAD, in words ([4]; APOE4+ subjects): demonstrated no improvement
DAD, in words ([4]; APOE4− subjects): demonstrated improvement on DAD
ADAS-cog change from baseline (FIG. 2), in words ([5]; APOE4+ individuals, 2 mg, 4 mg or 8 mg, after 8 weeks): slight improvement
ADAS-cog change from baseline (FIG. 2), in words ([5]; APOE4+ individuals, 2 mg, after 16 weeks): greater decline than the placebo
ADAS-cog change from baseline (FIG. 2), in words ([5]; APOE4+ individuals, 4 mg and 8 mg, after 16 weeks, versus placebo): the same or better clinical status
ADAS-cog change from baseline (FIG. 2), in words ([5]; APOE4+ individuals, all three treatment arms, after 24 weeks): finish with a clinical decline
Cognitive function (ADAS-cog), in words ([5]; APOE4 heterozygotes (single APOE4 allele), listed as rosiglitazone): do not show any recognisable trend; also recorded: stabilisation in cognitive function
ADAS-cog change, in words ([5]; APOE4 heterozygotes, 2 mg): some decline
ADAS-cog change, in words ([5]; APOE4 heterozygotes, 4 mg and 8 mg): little change
ADAS-cog change from baseline (FIG. 3), in words ([5]; APOE4 heterozygotes, higher doses (4, 8 mg)): remained close to the baseline
Cognitive function (ADAS-cog), in words ([5]; APOE4 homozygotes (two APOE4 alleles), listed as rosiglitazone): relatively large positive change in ADAS-cog scores; also recorded: may experience a clinical decline
ADAS-cog change from baseline (FIG. 3), in words ([5]; APOE4 homozygotes): experienced a clinical decline
ADAS-cog change from baseline (FIG. 2), in words ([5]; APOE4− individuals, 2 mg, 4 mg or 8 mg, all time points (8, 16 and 24 weeks)): marked improvement
Cognitive function (ADAS-cog), in words ([5]; APOE4− patients (no APOE4 allele), listed as rosiglitazone): general trend of improvement in cognitive function; also recorded: clinically relevant improvement in cognitive function relative to placebo
ADAS-cog effect of treatment, in words ([5]; ITT population as a whole, 2, 4, 8 mg, listed as rosiglitazone): trend is not statistically significant; also recorded: non-statistically significant trend to a general improvement
Protection of dopaminergic cells from toxic insults (dopaminergic cells): can protect dopaminergic cells
NPI, in words ([6]; APOE4+ subjects): demonstrated no improvement
NPI, in words ([6]; APOE4− subjects): demonstrated improvement on NPI
